Results on 25 compounds are retold here after US8148391B2 (Cephalon, Inc., priority 2006, dated 2012).

The target in assay [1] is T1, c-Met (cytoplasmic domain) (Homo sapiens, UniProt P08581).
T1 construct: 10 ng/mL c-Met (cytoplasmic domain, Invitrogen Corporation #PV3143); purchased Invitrogen Corporation PV3143
The assay can be described thus: c-Met Kinase Assay (same methods as for ALK, with modifications). The class given is biochemical. The note with it: c-Met kinase inhibition, 1 μM ATP (Km level); read-out: cMet Activity. An outline of the steps:
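This plate-based kinase format uses immobilized phospholipase C-γ as substrate, phosphorylated by c-Met cytoplasmic domain (10 ng/mL) at 37° C for 15 minutes.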

The target in assay [2] is T2, baculovirus-expressed ALK (Homo sapiens, UniProt Q9UM73).
T2 construct: host or cells: baculovirus expression system
T2 sequence (Q9UM73 19-1620): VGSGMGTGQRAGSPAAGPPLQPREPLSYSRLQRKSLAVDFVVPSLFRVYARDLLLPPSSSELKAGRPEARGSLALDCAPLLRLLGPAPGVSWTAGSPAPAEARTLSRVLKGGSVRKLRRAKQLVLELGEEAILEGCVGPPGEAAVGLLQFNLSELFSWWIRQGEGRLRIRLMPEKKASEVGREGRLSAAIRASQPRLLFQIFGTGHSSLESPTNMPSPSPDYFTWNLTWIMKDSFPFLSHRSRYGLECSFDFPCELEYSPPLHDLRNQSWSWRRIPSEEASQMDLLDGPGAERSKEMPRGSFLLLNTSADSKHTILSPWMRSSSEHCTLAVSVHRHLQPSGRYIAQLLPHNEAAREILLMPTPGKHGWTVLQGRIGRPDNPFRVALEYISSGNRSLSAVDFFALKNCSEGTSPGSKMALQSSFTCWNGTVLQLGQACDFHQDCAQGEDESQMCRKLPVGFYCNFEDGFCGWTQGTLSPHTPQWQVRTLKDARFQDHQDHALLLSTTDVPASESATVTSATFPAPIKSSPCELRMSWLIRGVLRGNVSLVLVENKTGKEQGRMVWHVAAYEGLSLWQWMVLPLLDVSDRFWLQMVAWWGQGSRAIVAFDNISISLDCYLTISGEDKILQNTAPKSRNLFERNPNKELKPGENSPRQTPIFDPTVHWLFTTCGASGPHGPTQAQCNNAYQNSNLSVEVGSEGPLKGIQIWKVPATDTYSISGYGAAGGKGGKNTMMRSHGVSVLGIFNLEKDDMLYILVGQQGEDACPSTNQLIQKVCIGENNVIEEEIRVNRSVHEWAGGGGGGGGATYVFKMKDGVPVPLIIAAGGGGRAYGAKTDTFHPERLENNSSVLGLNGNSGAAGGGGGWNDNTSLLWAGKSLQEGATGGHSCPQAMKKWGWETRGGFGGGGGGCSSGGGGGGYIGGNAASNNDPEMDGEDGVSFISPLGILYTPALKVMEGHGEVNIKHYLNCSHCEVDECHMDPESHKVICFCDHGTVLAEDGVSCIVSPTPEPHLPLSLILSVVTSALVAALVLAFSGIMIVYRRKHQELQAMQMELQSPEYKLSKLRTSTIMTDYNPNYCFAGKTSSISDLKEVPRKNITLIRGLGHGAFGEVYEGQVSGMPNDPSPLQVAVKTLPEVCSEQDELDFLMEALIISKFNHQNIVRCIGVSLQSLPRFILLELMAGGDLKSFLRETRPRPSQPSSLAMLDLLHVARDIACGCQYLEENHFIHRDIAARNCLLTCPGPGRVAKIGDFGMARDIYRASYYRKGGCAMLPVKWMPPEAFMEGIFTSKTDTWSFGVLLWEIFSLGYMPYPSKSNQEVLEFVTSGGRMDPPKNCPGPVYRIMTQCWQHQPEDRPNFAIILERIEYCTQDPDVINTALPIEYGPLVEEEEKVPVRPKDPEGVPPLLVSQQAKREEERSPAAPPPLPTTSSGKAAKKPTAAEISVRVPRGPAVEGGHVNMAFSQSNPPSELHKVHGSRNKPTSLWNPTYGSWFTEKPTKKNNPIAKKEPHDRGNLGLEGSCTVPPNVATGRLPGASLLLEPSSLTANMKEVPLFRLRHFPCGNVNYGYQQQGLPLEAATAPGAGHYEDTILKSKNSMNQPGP
The assay can be described thus: ALK Kinase Assay (ELISA-type, time-resolved fluorescence). The class given is biochemical. As to conditions: ALK kinase inhibition, 1 μM ATP (Km level); read-out: ALK Activity. An outline of the steps:
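Substrate coating: phospholipase C-γ, 10 μg/mL in TBS. Kinase step: 30 ng/ml ALK, 15 min, 37° C. Detection and analysis: Eu-N1 PT66 antibody, with IC50 fitted as a sigmoidal variable-slope dose-response curve.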

T1 sequence (P08581 956-1390 limits assumed): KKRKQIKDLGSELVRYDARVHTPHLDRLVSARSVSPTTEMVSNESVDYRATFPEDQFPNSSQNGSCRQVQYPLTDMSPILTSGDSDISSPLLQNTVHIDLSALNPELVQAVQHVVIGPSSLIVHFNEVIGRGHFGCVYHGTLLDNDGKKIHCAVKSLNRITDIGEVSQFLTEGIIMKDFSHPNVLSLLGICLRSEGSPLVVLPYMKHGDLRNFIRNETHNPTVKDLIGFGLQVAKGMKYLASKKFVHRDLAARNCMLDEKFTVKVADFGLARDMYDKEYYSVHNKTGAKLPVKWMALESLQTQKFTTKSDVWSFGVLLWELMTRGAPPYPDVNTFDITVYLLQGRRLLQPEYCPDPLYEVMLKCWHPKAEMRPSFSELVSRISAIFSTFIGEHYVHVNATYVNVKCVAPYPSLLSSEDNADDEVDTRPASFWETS

Take `CNC(=O)c1ccccc1Nc1nc(Nc2ccc3c(c2)C2CC3CN(CCOC)C2)ncc1Cl` (centres unmarked) [Example 161, 2-{5-Chloro-2-[10-(2-methoxy-ethyl)-10-aza-tricyclo[6.3.1.0*2,7*]dodeca-2,4,6-trien-4-ylamino]-pyrimidin-4-ylamino}-N-methyl-benzamide]: the IC50 in assay [1] is 100 to 1000 nM; in assay [2] it was less than 100 nM.
`CNS(=O)(=O)c1ccccc1Nc1nc(Nc2ccc3c(c2)C2CC3CN(CCOC)C2)ncc1Cl` (centres unmarked) [Example 162, 2-{5-Chloro-2-[10-(2-methoxy-ethyl)-10-aza-tricyclo[6.3.1.0*2,7*]dodeca-2,4,6-trien-4-ylamino]-pyrimidin-4-ylamino}-N-methyl-benzenesulfonamide]: the IC50 in assay [1] is 1000 to 10000 nM; in assay [2], less than 100 nM.
For the compound `CNS(=O)(=O)c1ccccc1Nc1nc(Nc2ccc3c(c2)C2CC3CN(S(C)(=O)=O)C2)ncc1Cl` (centres unmarked) [Example 163, 2-[5-Chloro-2-(10-methanesulfonyl-10-aza-tricyclo[6.3.1.0*2,7*]dodeca-2,4,6-trien-4-ylamino)-pyrimidin-4-ylamino]-N-methyl-benzenesulfonamide], the IC50 was 1000 to 10000 nM in assay [1] and less than 100 nM in assay [2].
As for `CNC(=O)c1ccccc1Nc1nc(Nc2ccc3c(c2)C2CC3CN(S(C)(=O)=O)C2)ncc1Cl` (centres unmarked) [Example 164, 2-[5-Chloro-2-(10-methanesulfonyl-10-aza-tricyclo[6.3.1.0*2,7*]dodeca-2,4,6-trien-4-ylamino)-pyrimidin-4-ylamino]-N-methyl-benzamide], the figures for the IC50 in assay [1] and in assay [2] were less than 100 nM and 100 to 1000 nM, respectively.
With `CC(C)N1CC2CC(C1)c1cc(Nc3ncc(Cl)c(N[C@@H]4CCCC[C@H]4NS(C)(=O)=O)n3)ccc12` (stereo partly drawn) [Example 165, N-{(1R,2R)-2-[5-Chloro-2-(10-isopropyl-10-aza-tricyclo[6.3.1.0*2,7*]dodeca-2,4,6-trien-4-ylamino)-pyrimidin-4-ylamino]-cyclohexyl}-methanesulfonamide], the IC50 in assay [1] fell in the range of 1000 to 10000 nM; in assay [2], 100 to 1000 nM.
In the case of `CCN1CCc2ccc(Nc3ncc(Cl)c(NC4CCCCNC4=O)n3)cc2CC1` (centres unmarked) [Example 166, 3-[5-Chloro-2-(3-ethyl-2,3,4,5-tetrahydro-1H-benzo[d]azepin-7-ylamino)-pyrimidin-4-ylamino]-azepan-2-one], the values for the IC50 in assay [1] and in assay [2] were 1000 to 10000 nM and less than 100 nM, respectively.
In the case of `CNS(=O)(=O)c1ccccc1Nc1nc(Nc2cccc3c2C(=O)NCCN3)ncc1Cl` [Example 171, 2-[5-Chloro-2-(5-oxo-2,3,4,5-tetrahydro-1H-benzo[e][1,4]diazepin-6-ylamino)pyrimidin-4-ylamino]-N-methyl-benzenesulfonamide], the IC50 in assay [1] and in assay [2] was 1000 to 10000 nM in each case.
With `CNC(=O)c1ccccc1Nc1nc(Nc2ccc3c(c2)CCC(=O)CC3)ncc1Cl` [Example 172, 2-[5-Chloro-2-(7-oxo-6,7,8,9-tetrahydro-5H-benzocyclo-hepten-2-ylamino)-pyrimidin-4-ylamino]-N-methyl-benzamide], the IC50 in assay [1] and in assay [2] was less than 100 nM throughout.
As for `CS(=O)(=O)N[C@@H]1CCCC[C@H]1Nc1nc(Nc2ccc3c(c2)CCC(=O)CC3)ncc1Cl` [Example 174, N-{(1R,2R)-2-[5-Chloro-2-(7-oxo-6,7,8,9-tetrahydro-5H-benzocyclohepten-2-ylamino)-pyrimidin-4-ylamino]-cyclohexyl}-methanesulfonamide], the figures for the IC50 in assay [1] and in assay [2] were 100 to 1000 nM and less than 100 nM, respectively.
On to `COc1cc(N2CCOCC2)ccc1Nc1nc(Nc2ccc3c(c2)CCC(=O)CC3)ncc1Cl` [Example 175, 2-[5-Chloro-4-(2-methoxy-4-morpholin-4-yl-phenylamino)-pyrimidin-2-ylamino]-5,6,8,9-tetrahydro-benzocyclohepten-7-one], for which the figures for the IC50 in assay [1] and in assay [2] were 1000 to 10000 nM and less than 100 nM, respectively.
Turning to `COCCN1CCc2ccc(Nc3ncc(Cl)c(NC4C5CCC(C5)C4C(N)=O)n3)cc2CC1` (stereo not drawn) [Example 177, (2-exo,3-exo)-3-{5-Chloro-2-[3-(2-methoxy-ethyl)-2,3,4,5-tetrahydro-1H-benzo[d]azepin-7-ylamino]-pyrimidin-4-ylamino}-bicyclo[2.2.1]heptane-2-carboxylic acid amide], the IC50 in assay [1] is 100 to 1000 nM; in assay [2], less than 100 nM.
Regarding `CNC(=O)c1ccccc1Nc1nc(Nc2ccc3c(c2)CCC(N2CCOCC2)CC3)ncc1Cl` (centres unmarked) [Example 178, 2-[5-Chloro-2-(7-morpholin-4-yl-6,7,8,9-tetrahydro-5H-benzocyclohepten-2-ylamino)-pyrimidin-4-ylamino]-N-methyl-benzamide], the IC50 in assay [1] and in assay [2] was less than 100 nM in each case.
In the case of `CS(=O)(=O)N[C@@H]1CCCC[C@H]1Nc1nc(Nc2ccc3c(c2)CCC(N2CCOCC2)CC3)ncc1Cl` (stereo partly drawn) [Example 179, N-{(1R,2R)-2-[5-Chloro-2-(7-morpholin-4-yl-6,7,8,9-tetrahydro-5H-benzocyclohepten-2-ylamino)-pyrimidin-4-ylamino]-cyclohexyl}-methanesulfonamide], the values for the IC50 in assay [1] and in assay [2] were 100 to 1000 nM and less than 100 nM, respectively.
For `CNC(=O)c1ccccc1Nc1nc(Nc2ccc3c(c2)CCC(F)(F)CC3)ncc1Cl` [Example 180, 2-[5-Chloro-2-(7,7-difluoro-6,7,8,9-tetrahydro-5H-benzocyclohepten-2-ylamino)-pyrimidin-4-ylamino]-N-methyl-benzamide], the IC50 in assay [1] is 100 to 1000 nM; in assay [2] it was less than 100 nM.
Consider `CS(=O)(=O)N[C@@H]1CCCC[C@H]1Nc1nc(Nc2ccc3c(c2)CCC(F)(F)CC3)ncc1Cl` [Example 181, N-{(1R,2R)-2-[5-Chloro-2-(7,7-difluoro-6,7,8,9-tetrahydro-5H-benzocyclohepten-2-ylamino)-pyrimidin-4-ylamino]-cyclohexyl}-methanesulfonamide], for which the IC50 in assay [1] is 1000 to 10000 nM; in assay [2], less than 100 nM.
In the case of `COc1cc(N2CCOCC2)ccc1Nc1nc(Nc2ccc3c(c2)CCC(F)(F)CC3)ncc1Cl` [Example 182, 5-Chloro-N*2*-(7,7-difluoro-6,7,8,9-tetrahydro-5H-benzocyclohepten-2-yl)-N*4*-(2-methoxy-4-morpholin-4-yl-phenyl)-pyrimidine-2,4-diamine], the IC50 in assay [1] is greater than 10000 nM; in assay [2], 100 to 1000 nM.
The matching figures for `CCN1CCc2ccc(Nc3ncc(C)c(Nc4ccccc4C(=O)NC)n3)cc2CC1` [Example 191, 2-[2-(3-Ethyl-2,3,4,5-tetrahydro-1H-benzo[d]azepin-7-ylamino)-5-methyl-pyrimidin-4-ylamino]-N-methyl-benzamide]: less than 100 nM and less than 100 nM.
As to `CCN1CCc2ccc(Nc3ncc(Br)c(Nc4ccccc4C(=O)NC)n3)cc2CC1` [Example 192, 2-[2-(3-Ethyl-2,3,4,5-tetrahydro-1H-benzo[d]azepin-7-ylamino)-5-bromo-pyrimidin-4-ylamino]-N-methyl-benzamide], the IC50 in assay [1] and in assay [2] was less than 100 nM each time.
Turning to `CCN1CCc2ccc(Nc3ncc([N+](=O)[O-])c(Nc4ccccc4C(=O)NC)n3)cc2CC1` [Example 193, 2-[2-(3-Ethyl-2,3,4,5-tetrahydro-1H-benzo[d]azepin-7-ylamino)-5-nitro-pyrimidin-4-ylamino]-N-methyl-benzamide], the IC50 in assay [1] was 100 to 1000 nM; in assay [2] it was less than 100 nM.
In the case of `CCN1CCc2ccc(Nc3ncc(C#N)c(Nc4ccccc4C(=O)NC)n3)cc2CC1` [Example 194, 2-[2-(3-Ethyl-2,3,4,5-tetrahydro-1H-benzo[d]azepin-7-ylamino)-5-cyano-pyrimidin-4-ylamino]-N-methyl-benzamide], the results for the IC50 in assay [1] and in assay [2] were 100 to 1000 nM and less than 100 nM, respectively.
As for `CCN1CCc2ccc(Nc3ncc(C(F)(F)F)c(Nc4ccccc4C(=O)NC)n3)cc2CC1` [Example 195, 2-[2-(3-Ethyl-2,3,4,5-tetrahydro-1H-benzo[d]azepin-7-ylamino)-5-trifluoromethyl-pyrimidin-4-ylamino]-N-methyl-benzamide], the IC50 in assay [1] and in assay [2] was less than 100 nM throughout.
On to `CCN1CCc2ccc(Nc3ncc(F)c(Nc4ccccc4C(=O)NC)n3)cc2CC1` [Example 196, 2-[2-(3-Ethyl-2,3,4,5-tetrahydro-1H-benzo[d]azepin-7-ylamino)-5-fluoro-pyrimidin-4-ylamino]-N-methyl-benzamide], for which the IC50 in assay [1] and in assay [2] was less than 100 nM in each case.
For the compound `CNC(=O)c1ccccc1Nc1nc(Nc2ccc3c(c2)CCCC(=O)N3C)ncc1Br` [Example 197, 2-[5-Bromo-2-(1-methyl-2-oxo-2,3,4,5-tetrahydro-1H-benzo[b]azepin-7-ylamino)-pyrimidin-4-ylamino]-N-methyl-benzamide], the IC50 in assay [1] and in assay [2] was less than 100 nM throughout.
Regarding `CNC(=O)c1ccccc1Nc1nc(Nc2cc3c(cc2OC)CCN(CCOC)CC3)ncc1Br` [Example 198, 2-{5-Bromo-2-[8-methoxy-3-(2-methoxy-ethyl)-2,3,4,5-tetrahydro-1H-benzo[d]azepin-7-ylamino]-pyrimidin-4-ylamino}-N-methyl-benzamide], the IC50 in assay [1] is 1000 to 10000 nM; in assay [2] it was less than 100 nM.
Consider `CCN1CCc2ccc(Nc3ncc(Cl)c(NCCC(=O)NC)n3)cc2CC1` [Example 211, 3-[5-Chloro-2-(3-ethyl-2,3,4,5-tetrahydro-1H-benzo[d]azepin-7-ylamino)-pyrimidin-4-ylamino]-N-methyl-propionamide], for which the IC50 was in the range of 1000 to 10000 nM in assay [1] and 100 to 1000 nM in assay [2].
